For 15 compounds, IC50 and GI50 results are on record in US9834571B2, “Compounds for inhibiting cell proliferation in EGFR-driven cancers” (ARIAD Pharmaceuticals, Inc., priority 2012, dated 2017).

For assay [1], the target named is human EGFR (native sequence) (Homo sapiens, UniProt P00533). In words: Kinase inhibitory activity against human EGFR (native sequence). Conditions: 10 pt curves, 3 μM top concentration, 10 μM ATP; read-out: IC50 for kinase inhibition, EGFR. The assay is classed as biochemical. Summed up: (§1)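 With ATP at 10 μM, single-replicate 10-point dose curves starting at 3 μM top concentration were run against each EGFR form: wild-type, L858R, and the L858R/T790M double mutant.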

A further assay has as its target EGFR L858R (Homo sapiens, UniProt P00533, L858R). The assay is described as follows: Kinase inhibitory activity against EGFR bearing the L858R mutation. The assay is classed as biochemical. Conditions: 10 pt curves, 3 μM top concentration, 10 μM ATP; read-out: IC50 for kinase inhibition, EGFR L858R. Summed up:
as §1

For a further assay, the target named is EGFR L858R/T790M (Homo sapiens, UniProt P00533, L858R/T790M). In words: Kinase inhibitory activity against EGFR bearing the L858R/T790M double mutation. Format: biochemical. To be noted: 10 pt curves, 3 μM top concentration, 10 μM ATP; read-out: IC50 for kinase inhibition, EGFR L858R T790M. In a few lines: as §1
Assay [2] concerns the target T1, BaF3 cells expressing the target EGFR mutations (Homo sapiens, UniProt P00533, T790M, cells depend on it, form not given).
T1 construct: IC50, BAF3 EGFR DEL T790M PURO POOL; other: BAF3 EGFR DEL T790M PURO POOL cells, MTT; other: BAF3 EGFR DEL T790M PURO POOL cells; MTT
The assay is described as follows: Antiproliferative activity (MTT) against BaF3 cells expressing the target EGFR mutations. The assay is classed as cell-based. To be noted: BAF3 EGFR DEL T790M PURO POOL cells, read-out: IC50, BAF3 EGFR DEL T790M PURO POOL. In a few lines:
(§2)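 In this screen, MTT reduction reported on proliferation of BaF3 cells dependent on mutated EGFR and of matched BaF3 cells expressing wildtype receptor.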

Assay [3] concerns the target T2, BaF3 cells expressing the target EGFR mutations (Homo sapiens, UniProt P00533, T790M/L858R, cells depend on it).
T2 construct: IC50, BAF3 EGFR L858R-T790M PURO POOL; other: BAF3 EGFR L858R-T790M PURO POOL cells, MTT; IC50, BAF3 EGFR L858R-T790M PURO POOL; other: BAF3 EGFR L858R-T790M PURO POOL cells; MTT
Described as above. Format: cell-based. Conditions: BAF3 EGFR L858R-T790M PURO POOL cells, read-out: IC50, BAF3 EGFR L858R-T790M PURO POOL. Summed up: as §2

Assay [4] deals with BaF3 cells expressing wildtype EGFR. The assay is described as follows: Antiproliferative activity (MTT) against control BaF3 cells expressing wildtype EGFR. To be noted: Mus musculus, BAF3 parental cells. The assay is classed as cell-based. Summed up:
as §2

Molecules are shown by their SMILES. Bounds are passed on as bounds.

EGFR L858R/T790M, sequence (P00533 25-1210 T790M/L858R): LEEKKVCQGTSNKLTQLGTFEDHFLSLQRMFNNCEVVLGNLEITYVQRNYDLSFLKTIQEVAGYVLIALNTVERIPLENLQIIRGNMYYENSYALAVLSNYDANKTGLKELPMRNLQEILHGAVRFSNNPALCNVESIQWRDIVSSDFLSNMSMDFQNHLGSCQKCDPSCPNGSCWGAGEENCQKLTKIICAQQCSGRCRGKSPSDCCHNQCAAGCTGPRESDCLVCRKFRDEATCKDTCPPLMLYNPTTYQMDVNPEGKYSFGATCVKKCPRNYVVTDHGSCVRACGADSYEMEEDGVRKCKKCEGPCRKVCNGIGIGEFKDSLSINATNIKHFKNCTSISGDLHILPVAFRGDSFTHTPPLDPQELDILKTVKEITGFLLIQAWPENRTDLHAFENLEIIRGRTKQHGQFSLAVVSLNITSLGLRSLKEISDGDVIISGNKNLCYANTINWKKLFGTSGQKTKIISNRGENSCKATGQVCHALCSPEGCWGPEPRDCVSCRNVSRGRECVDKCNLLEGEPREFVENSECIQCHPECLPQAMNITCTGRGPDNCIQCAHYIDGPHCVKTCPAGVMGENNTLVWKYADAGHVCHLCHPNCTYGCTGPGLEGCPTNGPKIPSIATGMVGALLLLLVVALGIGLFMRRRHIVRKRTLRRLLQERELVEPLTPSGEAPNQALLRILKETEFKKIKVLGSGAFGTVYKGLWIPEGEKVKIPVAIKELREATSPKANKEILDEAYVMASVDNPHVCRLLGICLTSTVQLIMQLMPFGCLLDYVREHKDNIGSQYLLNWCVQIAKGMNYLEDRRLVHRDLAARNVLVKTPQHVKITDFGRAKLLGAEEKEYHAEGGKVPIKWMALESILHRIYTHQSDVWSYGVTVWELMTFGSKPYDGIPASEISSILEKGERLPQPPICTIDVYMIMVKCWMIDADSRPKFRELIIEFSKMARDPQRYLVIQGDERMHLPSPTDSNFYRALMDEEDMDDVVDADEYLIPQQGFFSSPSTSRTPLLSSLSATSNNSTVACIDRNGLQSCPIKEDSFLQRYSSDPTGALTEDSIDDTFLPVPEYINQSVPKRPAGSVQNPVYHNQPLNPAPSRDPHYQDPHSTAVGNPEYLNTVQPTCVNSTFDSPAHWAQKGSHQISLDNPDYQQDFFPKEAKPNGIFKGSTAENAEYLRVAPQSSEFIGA
T1 sequence (P00533 with tags, fused parts or gaps DEL746-750/T790M, form open): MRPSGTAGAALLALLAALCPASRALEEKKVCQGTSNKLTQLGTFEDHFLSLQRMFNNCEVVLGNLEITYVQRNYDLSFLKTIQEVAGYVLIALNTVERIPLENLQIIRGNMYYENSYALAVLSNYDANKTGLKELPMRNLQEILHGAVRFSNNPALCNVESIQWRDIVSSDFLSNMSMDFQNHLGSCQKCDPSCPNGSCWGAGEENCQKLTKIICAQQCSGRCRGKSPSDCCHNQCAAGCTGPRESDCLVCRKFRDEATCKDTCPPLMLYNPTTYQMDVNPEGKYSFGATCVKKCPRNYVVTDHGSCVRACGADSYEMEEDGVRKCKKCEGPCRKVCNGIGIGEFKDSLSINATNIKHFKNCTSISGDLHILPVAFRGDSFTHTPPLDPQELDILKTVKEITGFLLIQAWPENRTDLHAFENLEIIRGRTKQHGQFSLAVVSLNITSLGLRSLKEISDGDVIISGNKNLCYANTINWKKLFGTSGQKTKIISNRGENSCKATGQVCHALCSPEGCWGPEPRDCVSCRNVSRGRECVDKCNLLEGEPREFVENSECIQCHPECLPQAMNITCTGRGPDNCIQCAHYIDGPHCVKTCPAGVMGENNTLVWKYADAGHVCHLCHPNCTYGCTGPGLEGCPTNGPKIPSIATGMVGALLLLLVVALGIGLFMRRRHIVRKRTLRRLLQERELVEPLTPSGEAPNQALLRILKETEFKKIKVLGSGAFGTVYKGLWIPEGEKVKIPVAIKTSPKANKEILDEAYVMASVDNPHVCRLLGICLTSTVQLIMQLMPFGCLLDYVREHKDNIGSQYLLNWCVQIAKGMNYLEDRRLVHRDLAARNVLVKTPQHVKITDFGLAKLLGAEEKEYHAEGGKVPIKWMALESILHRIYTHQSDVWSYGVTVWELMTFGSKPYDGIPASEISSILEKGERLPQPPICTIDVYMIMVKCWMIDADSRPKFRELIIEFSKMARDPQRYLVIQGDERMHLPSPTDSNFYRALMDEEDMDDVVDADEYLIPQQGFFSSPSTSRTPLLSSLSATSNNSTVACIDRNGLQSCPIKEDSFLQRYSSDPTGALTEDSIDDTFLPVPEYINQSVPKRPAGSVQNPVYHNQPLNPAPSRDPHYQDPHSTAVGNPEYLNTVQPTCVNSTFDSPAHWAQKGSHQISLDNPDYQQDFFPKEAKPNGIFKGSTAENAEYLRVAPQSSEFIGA
T2 sequence (P00533 whole entry T790M/L858R): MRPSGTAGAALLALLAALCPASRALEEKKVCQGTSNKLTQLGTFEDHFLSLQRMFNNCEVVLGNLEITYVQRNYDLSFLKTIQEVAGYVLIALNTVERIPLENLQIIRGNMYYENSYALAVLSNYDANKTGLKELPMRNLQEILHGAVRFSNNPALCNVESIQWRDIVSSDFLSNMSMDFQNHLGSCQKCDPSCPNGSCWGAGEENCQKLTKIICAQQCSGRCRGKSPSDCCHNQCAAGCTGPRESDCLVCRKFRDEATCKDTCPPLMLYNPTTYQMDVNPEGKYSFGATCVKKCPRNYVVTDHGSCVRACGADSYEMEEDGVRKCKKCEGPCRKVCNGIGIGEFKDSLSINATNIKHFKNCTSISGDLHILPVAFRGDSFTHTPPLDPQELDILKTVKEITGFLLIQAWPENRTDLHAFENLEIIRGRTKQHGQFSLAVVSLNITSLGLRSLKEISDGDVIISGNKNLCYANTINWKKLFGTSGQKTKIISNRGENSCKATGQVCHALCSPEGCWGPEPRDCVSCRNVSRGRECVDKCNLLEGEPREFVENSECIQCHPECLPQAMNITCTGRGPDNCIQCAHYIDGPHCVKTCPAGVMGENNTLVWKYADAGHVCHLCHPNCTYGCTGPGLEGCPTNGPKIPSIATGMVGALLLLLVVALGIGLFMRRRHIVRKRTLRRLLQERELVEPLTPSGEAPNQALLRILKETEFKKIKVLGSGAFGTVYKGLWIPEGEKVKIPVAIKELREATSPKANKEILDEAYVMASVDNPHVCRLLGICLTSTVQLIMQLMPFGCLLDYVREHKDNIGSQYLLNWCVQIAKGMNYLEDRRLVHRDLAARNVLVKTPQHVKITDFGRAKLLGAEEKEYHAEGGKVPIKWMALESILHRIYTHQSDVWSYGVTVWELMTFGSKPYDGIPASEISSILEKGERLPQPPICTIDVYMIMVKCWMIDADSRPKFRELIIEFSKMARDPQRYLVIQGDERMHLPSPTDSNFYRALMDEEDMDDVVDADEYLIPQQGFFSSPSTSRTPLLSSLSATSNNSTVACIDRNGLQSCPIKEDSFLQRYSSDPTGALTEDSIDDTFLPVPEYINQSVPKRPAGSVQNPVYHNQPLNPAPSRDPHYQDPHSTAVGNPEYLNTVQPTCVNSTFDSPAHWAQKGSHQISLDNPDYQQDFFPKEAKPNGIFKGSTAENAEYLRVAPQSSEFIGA
human EGFR (native sequence), sequence (P00533 25-1210): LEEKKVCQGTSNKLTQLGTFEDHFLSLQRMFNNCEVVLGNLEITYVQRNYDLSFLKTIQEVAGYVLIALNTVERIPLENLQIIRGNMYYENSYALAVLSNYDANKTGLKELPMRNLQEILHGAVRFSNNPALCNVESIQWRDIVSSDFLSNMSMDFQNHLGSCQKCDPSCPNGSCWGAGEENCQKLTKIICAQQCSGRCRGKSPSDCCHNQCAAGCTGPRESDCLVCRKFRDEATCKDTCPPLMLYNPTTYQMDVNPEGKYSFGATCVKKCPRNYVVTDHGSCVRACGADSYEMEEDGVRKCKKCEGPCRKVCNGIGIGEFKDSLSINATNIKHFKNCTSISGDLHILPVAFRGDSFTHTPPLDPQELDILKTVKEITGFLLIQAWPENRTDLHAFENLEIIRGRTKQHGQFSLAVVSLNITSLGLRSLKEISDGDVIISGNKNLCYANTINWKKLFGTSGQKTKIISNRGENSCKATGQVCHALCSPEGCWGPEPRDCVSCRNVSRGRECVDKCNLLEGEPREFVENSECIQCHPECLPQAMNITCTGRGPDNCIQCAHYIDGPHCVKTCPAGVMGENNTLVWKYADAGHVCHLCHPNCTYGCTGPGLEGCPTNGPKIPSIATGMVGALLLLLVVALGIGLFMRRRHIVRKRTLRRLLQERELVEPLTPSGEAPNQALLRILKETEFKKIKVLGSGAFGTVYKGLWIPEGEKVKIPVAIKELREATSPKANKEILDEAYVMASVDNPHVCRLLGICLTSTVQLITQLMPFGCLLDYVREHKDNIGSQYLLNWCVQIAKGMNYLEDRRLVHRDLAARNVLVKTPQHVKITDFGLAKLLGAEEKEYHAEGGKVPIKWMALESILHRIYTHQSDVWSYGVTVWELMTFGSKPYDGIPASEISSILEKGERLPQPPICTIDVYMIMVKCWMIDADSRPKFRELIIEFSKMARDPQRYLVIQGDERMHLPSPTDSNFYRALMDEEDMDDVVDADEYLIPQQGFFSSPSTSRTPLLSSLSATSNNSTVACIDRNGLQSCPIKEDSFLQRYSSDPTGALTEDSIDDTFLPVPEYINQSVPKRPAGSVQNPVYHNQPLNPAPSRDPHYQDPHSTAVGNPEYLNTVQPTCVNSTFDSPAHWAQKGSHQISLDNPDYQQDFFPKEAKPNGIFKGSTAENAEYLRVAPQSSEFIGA

With `C=CC(=O)Nc1cc(Nc2ncc(Cl)c(Nc3ccccc3S(=O)(=O)C(C)C)n2)c(OC)cc1C#CCN(C)C` [Example 153, N-(5-((5-chloro-4-((2-(isopropylsulfonyl)phenyl)amino)pyrimidin-2-yl)amino)-2-(3-(dimethylamino)prop-1-yn-1-yl)-4-methoxyphenyl)acrylamide], the IC50 is less than 50 nM in assay [1], less than 50 nM at EGFR L858R, less than 50 nM on EGFR L858R/T790M and not below 250 nM in assay [4]. Also, the GI50 in assay [2] and in assay [3] was less than 50 nM throughout.

With `C=CC(=O)Nc1cc(Nc2ncc(Cl)c(Nc3ccccc3P(C)(C)=O)n2)c(OC)cc1C#CC(C)(C)N(CC)CC` [Example 154, N-(5-((5-chloro-4-((2-(dimethylphosphoryl)phenyl)amino)pyrimidin-2-yl)amino)-2-(3-(diethylamino)-3-methylbut-1-yn-1-yl)-4-methoxyphenyl)acrylamide], the IC50 in assay [1] was less than 50 nM; on EGFR L858R it was less than 50 nM; on EGFR L858R/T790M it was less than 50 nM; in assay [4] it was not below 250 nM. The GI50 in assay [2] and in assay [3] was less than 50 nM in each case.

In the case of `C=CC(=O)Nc1cc(Nc2ncc(Cl)c(Nc3ccccc3P(C)(C)=O)n2)c(OC)cc1C#CC(C)(C)N(C)C` [Example 155, N-(5-((5-chloro-4-((2-(dimethylphosphoryl)phenyl)amino)pyrimidin-2-yl)amino)-2-(3-(dimethylamino)-3-methylbut-1-yn-1-yl)-4-methoxyphenyl)acrylamide], the IC50 in assay [1] is less than 50 nM; on EGFR L858R it was less than 50 nM; on EGFR L858R/T790M, less than 50 nM; in assay [4], not below 250 nM. Besides, the GI50 in assay [2] and in assay [3] was less than 50 nM in each case.

In the case of `C=CC(=O)Nc1cc(Nc2ncc(Cl)c(Nc3ccccc3P(C)(C)=O)n2)c(Cl)cc1C#CCN(C)C` [Example 156, N-(4-chloro-5-((5-chloro-4-((2-(dimethylphosphoryl)phenyl)amino)pyrimidin-2-yl)amino)-2-(3-(dimethylamino)prop-1-yn-1-yl)phenyl)acrylamide], the IC50 in assay [1] was less than 50 nM; on EGFR L858R it was less than 50 nM; on EGFR L858R/T790M, less than 50 nM; in assay [4], not below 250 nM. The GI50 in assay [2] and in assay [3] was less than 50 nM in each case.

`C=CC(=O)Nc1cc(Nc2ncc(Cl)c(Nc3ccccc3P(C)(C)=O)n2)c(OC)cc1C#CCN1CCCC1` [Example 157, N-(5-((5-chloro-4-((2-(dimethylphosphoryl)phenyl)amino)pyrimidin-2-yl)amino)-4-methoxy-2-(3-(pyrrolidin-1-yl)prop-1-yn-1-yl)phenyl)acrylamide]: the IC50 in assay [1] was less than 50 nM; at EGFR L858R, less than 50 nM; on EGFR L858R/T790M, less than 50 nM; in assay [4], not below 250 nM. The GI50 in assay [2] and in assay [3] was less than 50 nM in each case.

Take `C=CC(=O)Nc1cc(Nc2ncc(Cl)c(Nc3ccccc3P(C)(C)=O)n2)c(OC)cc1C#CCN(C(C)C)C(C)C` [Example 158, N-(5-((5-chloro-4-((2-(dimethylphosphoryl)phenyl)amino)pyrimidin-2-yl)amino)-2-(3-(diisopropylamino)prop-1-yn-1-yl)-4-methoxyphenyl)acrylamide]: the IC50 is less than 50 nM in assay [1], less than 50 nM on EGFR L858R, less than 50 nM at EGFR L858R/T790M and not below 250 nM in assay [4]. For the same compound, the GI50 in assay [2] and in assay [3] was less than 50 nM throughout.

For the compound `C=CC(=O)Nc1cc(Nc2ncc(Cl)c(Nc3ccccc3P(C)(C)=O)n2)c(OC)cc1C#CCN1CCN(C)CC1` [Example 159, N-(5-((5-chloro-4-((2-(dimethylphosphoryl)phenyl)amino)pyrimidin-2-yl)amino)-4-methoxy-2-(3-(4-methylpiperazin-1-yl)prop-1-yn-1-yl)phenyl)acrylamide], the IC50 in assay [1] is less than 50 nM; at EGFR L858R, less than 50 nM; at EGFR L858R/T790M, less than 50 nM; in assay [4], not below 250 nM. For the same compound, the figures for the GI50 in assay [2] and in assay [3] were less than 50 nM and 101 to 250 nM, respectively.

For the compound `C=CC(=O)Nc1cc(Nc2ncc(Cl)c(Nc3ccccc3P(C)(C)=O)n2)c(OC)cc1C#CCNC` [Example 160, N-(5-((5-chloro-4-((2-(dimethylphosphoryl)phenyl)amino)pyrimidin-2-yl)amino)-4-methoxy-2-(3-(methylamino)prop-1-yn-1-yl)phenyl)acrylamide], the IC50 in assay [1] is less than 50 nM; at EGFR L858R, less than 50 nM; on EGFR L858R/T790M it was less than 50 nM; in assay [4], not below 250 nM. Further, the GI50 in assay [2] and in assay [3] was less than 50 nM throughout.

Consider `C=CC(=O)Nc1cc(Nc2ncc(Cl)c(Nc3ccccc3P(C)(C)=O)n2)c(OC)cc1C#CCN(C)CCOC` [Example 161, N-(5-((5-chloro-4-((2-(dimethylphosphoryl)phenyl)amino)pyrimidin-2-yl)amino)-4-methoxy-2-(3-((2-methoxyethyl)(methyl)amino)prop-1-yn-1-yl)phenyl)acrylamide], for which the IC50 in assay [1] was less than 50 nM; on EGFR L858R, less than 50 nM; at EGFR L858R/T790M, less than 50 nM; in assay [4], not below 250 nM. For the same compound, the GI50 in assay [2] and in assay [3] was less than 50 nM each time.

In the case of `C=CC(=O)Nc1cc(Nc2ncc(Cl)c(Nc3ccccc3P(C)(C)=O)n2)c(OC)cc1C#CCN(C)CC` [Example 162, N-(5-((5-chloro-4-((2-(dimethylphosphoryl)phenyl)amino)pyrimidin-2-yl)amino)-2-(3-(ethyl(methyl)amino)prop-1-yn-1-yl)-4-methoxyphenyl)acrylamide], the IC50 in assay [1] is less than 50 nM; on EGFR L858R, less than 50 nM; on EGFR L858R/T790M, less than 50 nM; in assay [4], not below 250 nM. In addition, the GI50 in assay [2] and in assay [3] was less than 50 nM in each case.

As to `C=CC(=O)Nc1ccc(OC)c(Nc2cc(Nc3ncccc3P(C)(C)=O)ncn2)c1` [Example 163, N-(3-((6-((3-(dimethylphosphoryl)pyridin-2-yl)amino)pyrimidin-4-yl)amino)-4-methoxyphenyl)acrylamide], the IC50 in assay [1] is 50 to 100 nM; on EGFR L858R, less than 50 nM; at EGFR L858R/T790M it was 101 to 250 nM; in assay [4] it was not below 250 nM. In addition, the GI50 in assay [2] and in assay [3] was not below 250 nM each time.

For `C=CC(=O)Nc1ccc(OC)c(Nc2ncc(Cl)c(Nc3cnccc3P(C)(C)=O)n2)c1` [Example 164, N-(3-((5-chloro-4-((4-(dimethylphosphoryl)pyridin-3-yl)amino)pyrimidin-2-yl)amino)-4-methoxyphenyl)acrylamide], the IC50 in assay [1] was not below 250 nM; on EGFR L858R it was less than 50 nM; on EGFR L858R/T790M, less than 50 nM; in assay [4] it was not below 250 nM. The GI50 in assay [2] was 101 to 250 nM; in assay [3], not below 250 nM.

Consider `C=CC(=O)Nc1cc(Nc2ncc(Cl)c(Nc3ccccc3P(C)(C)=O)n2)c(OC)cc1C#CCN1CCCCCC1` [Example 165, N-(2-(3-(azepan-1-yl)prop-1-yn-1-yl)-5-((5-chloro-4-((2-(dimethylphosphoryl)phenyl)amino)pyrimidin-2-yl)amino)-4-methoxyphenyl)acrylamide], for which the half-maximal inhibitory concentration (IC50) in assay [1] is less than 50 nM; on EGFR L858R, less than 50 nM; on EGFR L858R/T790M it was less than 50 nM; in assay [4] it was not below 250 nM. The GI50 in assay [2] and in assay [3] was less than 50 nM in each case.

For the compound `C=CC(=O)Nc1cc(Nc2ncc(Cl)c(Nc3ccccc3P(C)(C)=O)n2)c(OC)cc1C#CCN(C)C(C)C` [Example 166, N-(5-((5-chloro-4-((2-(dimethylphosphoryl)phenyl)amino)pyrimidin-2-yl)amino)-2-(3-(isopropyl(methyl)amino)prop-1-yn-1-yl)-4-methoxyphenyl)acrylamide], the IC50 in assay [1] is less than 50 nM; at EGFR L858R it was less than 50 nM; on EGFR L858R/T790M it was less than 50 nM; in assay [4], not below 250 nM. In addition, the GI50 in assay [2] and in assay [3] was less than 50 nM each time.

Turning to `C=CC(=O)Nc1cc(Nc2ncc(Cl)c(Nc3ccccc3P(C)(C)=O)n2)c(OC)cc1C#CCN1CCCCC1` [Example 167, N-(5-((5-chloro-4-((2-(dimethylphosphoryl)phenyl)amino)pyrimidin-2-yl)amino)-4-methoxy-2-(3-(piperidin-1-yl)prop-1-yn-1-yl)phenyl)acrylamide], the 50% inhibitory concentration (IC50) (in assay [1]; on EGFR L858R; at EGFR L858R/T790M; in assay [4]) was less than 50 nM throughout. Besides, the GI50 in assay [2] and in assay [3] was less than 50 nM throughout.
